# Assay results as given in paper PMC5071874, “Universal stress protein Rv2624c alters abundance of arginine and enhances intracellular survival by ATP binding in mycobacteria” (Scientific Reports, 2016).
# Target: Rv2624c (Mycobacterium tuberculosis, UniProt P9WFD5)
# Sequence (P9WFD5 whole entry): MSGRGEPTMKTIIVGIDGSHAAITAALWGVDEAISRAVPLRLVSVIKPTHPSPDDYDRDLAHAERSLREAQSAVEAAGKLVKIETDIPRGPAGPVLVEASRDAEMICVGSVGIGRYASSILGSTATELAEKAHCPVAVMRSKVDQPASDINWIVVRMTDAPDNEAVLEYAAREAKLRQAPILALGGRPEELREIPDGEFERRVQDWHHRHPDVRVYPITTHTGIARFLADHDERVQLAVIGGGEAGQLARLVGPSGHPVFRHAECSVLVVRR
row,Compound,HPLC of nucleotides extracted by boiling purified protein
1,Nc1ncnc2c1ncn2[C@@H]1O[C@H](COP(=O)(O)OP(=O)(O)O)[C@@H](O)[C@H]1O [ADP],purified Rv2624c proteins from E. coli bound tightly to ATP and ADP after extensive purification steps
2,Nc1ncnc2c1ncn2[C@@H]1O[C@H](COP(=O)(O)OP(=O)(O)OP(=O)(O)O)[C@@H](O)[C@H]1O [ATP],purified Rv2624c proteins from E. coli bound tightly to ATP and ADP after extensive purification steps
